From ChEMBL document CHEMBL1131967, “BN 80927: a novel homocamptothecin with inhibitory activities on both topoisomerase I and topoisomerase II” (Bioorg Med Chem Lett, 1999)

Columns and labels:
Assay type in all cases: functional, cell-based
[1] = tested on: HT-29; assay: Antiproliferative activity against human HT-29 colon cell line
[2] = tested on: DU-145; assay: Antiproliferative activity against human DU145 prostate cell line
[3] = tested on: MCF7; assay: Antiproliferative activity against human MCF-7 breast cell line
[4] = tested on: SK-OV-3; assay: Antiproliferative activity against human SKOV-3 ovarian cell line

Row | SMILES | IC50 [1] [nM] | IC50 [2] [nM] | IC50 [3] [nM] | IC50 [4] [nM]
1 | CN(C)CCNC(=O)c1cccc2cc3ccccc3nc12 | > 10000 | 2300 | 3800 | 2400
2 | CCc1c2c(nc3ccc(O)cc13)-c1cc3c(c(=O)n1C2)COC(=O)[C@]3(O)CC [7-ETHYL-10-HYDROXYCAMPTOTHECIN] | 22 | 13 | 370 | 720
3 | COc1cc([C@@H]2c3cc4c(cc3[C@@H](O[C@@H]3O[C@@H]5CO[C@@H](C)O[C@H]5[C@H](O)[C@H]3O)[C@H]3COC(=O)[C@H]23)OCO4)cc(OC)c1O [ETOPOSIDE] | 200 | 1300 | 100000 | 4900
4 | Cc1cnc(NCCCN(C)C)c2c1[nH]c1ccc3cc(O)ccc3c12 [INTOPLICINE] | 890 | 560 | 1000 | 450
